Data on 37 compounds can be found in patent US5272054A, “Assay by enzyme-catalyzed isotopic exchange” (Syntex (U.S.A.) Inc., priority 1992, dated 1993).

One test relates to homoserine dehydrogenase. As to the kind of experiment: Isotopic exchange assay using homoserine dehydrogenase: specificity. The format is biochemical, Baker's Yeast.
Conditions: not given
The protocol:
Homoserine and aspartic-β-semialdehyde are determined using homoserine dehydrogenase from Baker's Yeast (Anheuser-Busch) obtained by the procedure of Black, S. "Methods in Enzymology", vol. V, page 820 (Academic Press, New York, 1962), pages 824-827 of which are incorporated herein by reference. […] Other non-interfering substances will include 3-aminopropanol, γ-hydroxybutyrate, acetaldehyde, DL-threonine, DL-serine, and DL-homocysteine. DL-glutamic γ-semialdehyde will react at 1% of the rate of aspartic-β-semialdehyde.
As for `NC(CCC=O)C(=O)O` (racemic) [DL-glutamic γ-semialdehyde], the “rate of reaction relative to aspartic-β-semialdehyde” value turned out to be 1%.

Staying with this test, now noted: homoserine / aspartic-β-semialdehyde assay.
Consider `NCCCO` [3-aminopropanol], for which the “interference with assay results” value is “non-interfering”.

With `NC(CCS)C(=O)O` (racemic) [DL-homocysteine], the “interference with assay results” value is “non-interfering”. As to `NC(CO)C(=O)O` (racemic) [DL-serine], the “interference with assay results” value is reported as “non-interfering”. Same read-out and setting: to `CC=O` [acetaldehyde] belongs “non-interfering”; to `C[C@@H](O)[C@H](N)C(=O)O` (racemic) [DL-threonine], “non-interfering”.

In the next test the test system is D-lactate dehydrogenase. As to the kind of experiment: Isotopic exchange assay using D-lactate dehydrogenase: specificity. The format is biochemical. To be noted: D-lactate / pyruvate assay, enzyme from Lactobacillus plantarum. The protocol:
D-lactate and pyruvate in plasma are determined using D-lactate dehydrogenase from Lactobacillus leichmannii (Sigma or Boehringer-Mannheimbiochemicals) obtained by the procedure of Brandt, R. B. "Methods in Enzymology", vol. 89, page 35 (Academic Press, New York, 1982), pages 35-40 of which are incorporated herein by reference. The assay will detect D-lactate concentrations in plasma from 0.006 to 1.2 mM and at higher concentrations in food or microbiological samples. If the enzyme is from Lactobacillus plantarum obtained according to Dennis, D.; Kaplan, N. O. J. Bio.
On to `CC(C)[C@@H](O)C(=O)O` [Disovalerate], for which the “interference with assay results” value is given as “will not interfere with the assay results”. For `CCCC[C@@H](O)C(=O)O`, the “interference with assay results” value is recorded as “will not interfere with the assay results”.

Regarding `CC(C)C[C@@H](O)C(=O)O`, the “interference with assay results” value is reported as “will not interfere with the assay results”. Take `C[C@H](O)C(=O)O` [L-lactate]: the “interference with assay results” value is “will not interfere with the assay results”.

In the case of `CC[C@@H](O)C(=O)O` [2-hydroxy-D-butyrate], the “interference with assay results” value was “will not interfere with the assay results”.

Still in this test, the particulars now being: enzyme from Lactobacillus plantarum.
With “nicotinamide adenine dinucleotide phosphate [NAD(P)]”, the “replacement of NAD as cofactor” value is given as “will not replace NAD”.

For another test, the system named is fructuronate reductase. The experiment in a line: Isotopic exchange assay using fructuronate reductase: specificity. The format is biochemical, Escheria coli K-12 strain S 3000 (Hfr H).
Conditions: not given
As to the method: D-mannonate and D-fructuronate are determined using fructuronate reductase from Escheria coli K-12 strain S 3000 (Hfr H) obtained by the procedure of Portalier, R.; Stoeber, F. "Methods in Enzymology", vol. 89, page 210 (Academic Press, New York, 1982), pages 210-218 of which are incorporated herein by reference. […] D-tagaturonate and D-altronate are 20% as active as D-fructuronate and D-mannonate, respectively.
Regarding “nicotinamide adenine dinucleotide phosphate [NAD(P)]”, the “substitution for NAD as cofactor” value was “will not substitute for AND”.

The same test, now with this note: D-mannonate / D-fructuronate assay.
Regarding `O=C[C@H](O)[C@@H](O)[C@@H](O)[C@H](O)CO` [D-galactose], the “interference with assay results” value is given as “will not interfere with assay results”. For `O=C(CO)[C@H](O)[C@H](O)CO` [D-ribulose], the “interference with assay results” value was “will not interfere with assay results”.

Take `O=C[C@@H](O)[C@@H](O)[C@H](O)[C@H](O)C(O)CO` (stereo partly drawn) [D-manno-heptose]: the “interference with assay results” value is “will not interfere with assay results”. `O=C[C@@H](O)[C@@H](O)[C@H](O)[C@H](O)CO` [D-mannose]: the “interference with assay results” value is reported as “will not interfere with assay results”. As to `O=C[C@@H](O)[C@H](O)[C@H](O)CO` [D-arabinose], the “interference with assay results” value is recorded as “will not interfere with assay results”.

As to `O=C[C@H](O)[C@@H](O)[C@@H](O)CO` [L-arabinose], the “interference with assay results” value is reported as “will not interfere with assay results”. In the case of `O=C(CO)[C@@H](O)[C@H](O)[C@H](O)CO` [D-fructose], the “interference with assay results” value is listed as “will not interfere with assay results”. Take `O=C(CO)[C@@H](O)[C@H](O)[C@H](O)[C@H](O)CO` [D-altro-heptulose]: the “interference with assay results” value is reported as “will not interfere with assay results”. Regarding `O=C(CO)[C@H](O)[C@@H](O)[C@H](O)CO` [D-sorbose], the “interference with assay results” value is given as “will not interfere with assay results”.

With `O=C[C@H](O)[C@H](O)[C@H](O)CO` [D-ribose], the “interference with assay results” value is recorded as “will not interfere with assay results”.

Consider `O=C[C@H](O)[C@@H](O)[C@H](O)[C@H](O)CO` [D-glucose], for which the “interference with assay results” value is reported as “will not interfere with assay results”. Same read-out and setting: with `O=C[C@@H](O)[C@H](O)[C@@H](O)CO` [L-xylose] the entry was “will not interfere with assay results”; with `O=C(CO)[C@@H](O)[C@@H](O)[C@H](O)CO` [D-tagatose], “will not interfere with assay results”; with `O=C[C@H](O)[C@@H](O)[C@H](O)CO` [D-xylose], “will not interfere with assay results”. As for `O=C[C@H](O)[C@H](O)[C@@H](O)CO` [L-lyxose], the “interference with assay results” value is reported as “will not interfere with assay results”.

Another test deals with soluble 17β-hydroxysteroid dehydrogenase. As to the kind of experiment: Isotopic exchange assay using 17β-hydroxysteroid dehydrogenase: specificity. The format is biochemical, human.
Conditions: not given
As to the method: Estradiol-17β and estrone are determined using soluble 17β-hydroxysteroid dehydrogenase from human term placenta obtained by the procedure of Jarabak, J. "Methods in Enzymology", vol.
As to `CC(=O)[C@H]1CC[C@H]2[C@@H]3CCC4=CC(=O)CC[C@]4(C)[C@H]3CC[C@]12C` [Progesterone], the “rate of reaction relative to estrone” value is “one-fiftieth”. As for `C[C@H](O)[C@H]1CC[C@H]2[C@@H]3CCC4=CC(=O)CC[C@]4(C)[C@H]3CC[C@]12C` [20α-hydroxy derivative], the “rate of reaction relative to estrone” value is given as “one-fiftieth”.

The same test, now with this note: estradiol-17β / estrone assay.
Turning to `C[C@]12CC[C@@H]3c4ccc(O)cc4CC[C@H]3[C@@H]1C[C@H](O)C2` [16β-estradiol], the “interference with assay results” value was “will not interfere with the assay results”.

For a further test, the system named is ω-hydroxydecanoate dehydrogenase. As to the kind of experiment: Isotopic exchange assay using ω-hydroxydecanoate dehydrogenase: specificity. The format is biochemical, rabbit. The note with it: 10-hydroxydecanoate / 10-oxodecanoate assay. From the text: The enzyme obtained will be contaminated to some degree with L-lactate dehydrogenase (I.U.B. 1.1.1.27).
Turning to `C[C@@H](O)[C@H](N)C(=O)O` [threonine], the “interference with assay results” value is reported as “will not interfere with assay results”. Still for that read-out and setting: to `NCCO` [ethanolamine] belongs “will not interfere with assay results”; to `N[C@@H](CO)C(=O)O` [serine], “will not interfere with assay results”. In the case of `CCO` [ethanol], the “interference with assay results” value is given as “will not interfere with assay results”. As to `Cc1ncc(CO)c(CO)c1O` [pyridoxine], the “interference with assay results” value was “will not interfere with assay results”.

Staying with this test, now noted: value in brackets after the substrate.
For `O=C(O)CCCCCCCCCCO` [11-hydroxy undecanoate], the “relative rate of reaction” value is 100. With `O=C(O)CCCCCCCCCO` [10-hydroxycaproate], the “relative rate of reaction” value was found to be 0.90.

The next test deals with 15-hydroxyprostaglandin dehydrogenase. As to the kind of experiment: Isotopic exchange assay using 15-hydroxyprostaglandin dehydrogenase: specificity. The format is biochemical, pig.
Conditions: not given
The protocol: 11α,15-dihydroxy-9-oxoprost-13-enoate and 11α-hydroxy-9, 15-dioxoprost-13-enoate are determined using 15-hydroxyprostaglandin dehydrogenase from pig lung obtained by the procedure of Anggard, E.; Samuelsson, B. "Methods in Enzymology", vol. 14, page 215 (Academic Press, New York, 1969), pages 215-219 of which are incorporated herein by reference. The assay will detect most 15-hydroxy or 15-oxo-prostaglandins except those containing the dienone chromophore such as prostaglandin B compounds and their 19-hydroxylated derivatives.
Take “nicotinamide adenine dinucleotide phosphate [NAD(P)]”: the “replacement of NAD as cofactor” value is recorded as “will not replace NAD”.

In another test the test system is 21-hydroxysteroid dehydrogenase. As to the kind of experiment: Isotopic exchange assay using 21-hydroxysteroid dehydrogenase: specificity. The format is biochemical, sheep.
Conditions: not given
The protocol: Cortisol and 21-dehydrocortisol are determined using AND dependent 21-hydroxysteroid dehydrogenase from sheep liver obtained by the procedure of Monder, C.; Furfine, C. S. "Methods in Enzymology", vol. […] 21-hydroxy-derivatives of cortisol, cortisone, corticosterone, 11-deoxycortisol, Δ^1 -cortisone, Δ^1 -cortisol, 11-deoxycorticosterone, and 9α-fluorocortisol will all be assayed using this enzyme.
With “nicotinamide adenine dinucleotide phosphate [NAD(P)]”, the “replacement of NAD as cofactor” value is given as “will not replace NAD”.
